# Data published in patent publication US20110166112A1, “METHOD FOR STIMULATING PLATELET PRODUCTION” (Eisai, Inc., priority 2009, published 2011).
# Tested on: subjects with chronic ITP
# Assay: Combined 28-day and 6-month rollover studies of E5501: safety (TEAEs, serious TEAEs, thromboembolic events, neoplasms, liver toxicity, discontinuations)
# Type: in vivo, human
# Details: N=22
# Text: Primary Endpoint: The primary endpoint was to assess the safety and tolerability to E5501, including AEs and clinical laboratory parameters, over the 6 additional months of treatment.
# In this way, safety data reflect each subject's complete duration of exposure to E5501 starting with lead-in the previous study and continuing into the current study.
# Following Protocol Amendment 4, the current study contained a flexible dose regimen; therefore, this study was considered to have an open-label, uncontrolled, single-arm design. […] This was the method used to assess safety. • Grouping method B was based on both treatment received and day 28 platelet response to study drug in Study the previous study. This was the method used for the analysis of efficacy for the FAS and the SE population.
# Overall Adverse Events. […] The primary focus is on summary statistics for the entire safety population and provides an overall safety profile for E5501. The summary statistics for each group, e.g., lower ⅓, middle ⅓ and upper ⅓ average daily dose levels, is secondary and provides further safety information across the 3 dose levels.
smiles,measurement,setting,value
"O=C(Nc1nc(-c2cc(Cl)cs2)c(N2CCN(C3CCCCC3)CC2)s1)c1cnc(N2CCC(C(=O)O)CC2)c(Cl)c1 [E5501, 1-(3-chloro-5-{[4-(4-chlorothiophen-2-yl)-5-(4-cyclohexylpiperazin-1-yl)thiazol-2-yl]carbamoyl}pyridine-2-yl)piperidine-4-carboxylic acid]","Serious TEAE, n of subjects",Lower ⅓ dose (2.5-<8.85 mg),1
same,"Serious treatment-related TEAEs, % of subjects",Lower ⅓ dose (2.5-<8.85 mg),(4.5) %
same,"Serious treatment-related TEAEs, n of subjects",Lower ⅓ dose (2.5-<8.85 mg),1
same,"Severe (grade 3-4) TEAEs, % of subjects",Lower ⅓ dose (2.5-<8.85 mg),(18.2) %
same,"Severe (grade 3-4) TEAEs, n of subjects",Lower ⅓ dose (2.5-<8.85 mg),4
same,"Somnolence, n of subjects",Lower ⅓ dose (2.5-<8.85 mg),0
same,"Suspected drug-related AEs, % of subjects",Lower ⅓ dose (2.5-<8.85 mg),(59.1) %
same,"Suspected drug-related AEs, n of subjects",Lower ⅓ dose (2.5-<8.85 mg),13
same,"Upper respiratory tract infection, % of subjects",Lower ⅓ dose (2.5-<8.85 mg),(9.1) %
same,"Upper respiratory tract infection, n of subjects",Lower ⅓ dose (2.5-<8.85 mg),2
same,"Vomiting, % of subjects",Lower ⅓ dose (2.5-<8.85 mg),(4.5) %
same,"Vomiting, n of subjects",Lower ⅓ dose (2.5-<8.85 mg),1
same,"Withdrawal due to TEAE, % of subjects",Lower ⅓ dose (2.5-<8.85 mg),(13.6) %
same,"Withdrawal due to TEAE, n of subjects",Lower ⅓ dose (2.5-<8.85 mg),3
same,"Abdominal pain upper, n of subjects",Middle ⅓ dose (≧8.85-<13.5 mg),0
same,"Any Serious TEAE, n (%) of subjects",Middle ⅓ dose (≧8.85-<13.5 mg),3 (13.6) n (%)
same,"Any TEAE, % of subjects",Middle ⅓ dose (≧8.85-<13.5 mg),(100.0) %
same,"Any TEAE, n of subjects",Middle ⅓ dose (≧8.85-<13.5 mg),22
same,"Arthralgia, % of subjects",Middle ⅓ dose (≧8.85-<13.5 mg),(18.2) %
same,"Arthralgia, n of subjects",Middle ⅓ dose (≧8.85-<13.5 mg),4
same,"Asthenia, n of subjects",Middle ⅓ dose (≧8.85-<13.5 mg),0
same,"Back pain, % of subjects",Middle ⅓ dose (≧8.85-<13.5 mg),(9.1) %
same,"Back pain, n of subjects",Middle ⅓ dose (≧8.85-<13.5 mg),2
same,"Constipation, % of subjects",Middle ⅓ dose (≧8.85-<13.5 mg),(13.6) %
same,"Constipation, n of subjects",Middle ⅓ dose (≧8.85-<13.5 mg),3
same,"Contusion, % of subjects",Middle ⅓ dose (≧8.85-<13.5 mg),(13.6) %
same,"Contusion, n of subjects",Middle ⅓ dose (≧8.85-<13.5 mg),3
same,"Cough, n of subjects",Middle ⅓ dose (≧8.85-<13.5 mg),0
same,"Deaths, n of subjects",Middle ⅓ dose (≧8.85-<13.5 mg),0
same,"Diarrhoea, % of subjects",Middle ⅓ dose (≧8.85-<13.5 mg),(4.5) %
same,"Diarrhoea, n of subjects",Middle ⅓ dose (≧8.85-<13.5 mg),1
same,"Dizziness, % of subjects",Middle ⅓ dose (≧8.85-<13.5 mg),(4.5) %
same,"Dizziness, n of subjects",Middle ⅓ dose (≧8.85-<13.5 mg),1
same,"Dose interruption due to TEAE, % of subjects",Middle ⅓ dose (≧8.85-<13.5 mg),(13.6) %
same,"Dose interruption due to TEAE, n of subjects",Middle ⅓ dose (≧8.85-<13.5 mg),3
same,"Dyspnoea, % of subjects",Middle ⅓ dose (≧8.85-<13.5 mg),(13.6) %
same,"Dyspnoea, n of subjects",Middle ⅓ dose (≧8.85-<13.5 mg),3
same,"Ecchymosis, % of subjects",Middle ⅓ dose (≧8.85-<13.5 mg),(9.1) %
same,"Ecchymosis, n of subjects",Middle ⅓ dose (≧8.85-<13.5 mg),2
same,"Epistaxis, % of subjects",Middle ⅓ dose (≧8.85-<13.5 mg),(13.6) %
same,"Epistaxis, n of subjects",Middle ⅓ dose (≧8.85-<13.5 mg),3
same,"Fatigue, % of subjects",Middle ⅓ dose (≧8.85-<13.5 mg),(31.8) %
same,"Fatigue, n of subjects",Middle ⅓ dose (≧8.85-<13.5 mg),7
same,"Gingival bleeding, % of subjects",Middle ⅓ dose (≧8.85-<13.5 mg),(9.1) %
same,"Gingival bleeding, n of subjects",Middle ⅓ dose (≧8.85-<13.5 mg),2
same,"Headache, % of subjects",Middle ⅓ dose (≧8.85-<13.5 mg),(40.9) %
same,"Headache, n of subjects",Middle ⅓ dose (≧8.85-<13.5 mg),9
same,"Insomnia, % of subjects",Middle ⅓ dose (≧8.85-<13.5 mg),(13.6) %
same,"Insomnia, n of subjects",Middle ⅓ dose (≧8.85-<13.5 mg),3
same,"Migraine, % of subjects",Middle ⅓ dose (≧8.85-<13.5 mg),(4.5) %
same,"Migraine, n of subjects",Middle ⅓ dose (≧8.85-<13.5 mg),1
same,"Mouth haemorrhage, n of subjects",Middle ⅓ dose (≧8.85-<13.5 mg),0
same,"Nausea, % of subjects",Middle ⅓ dose (≧8.85-<13.5 mg),(9.1) %
same,"Nausea, n of subjects",Middle ⅓ dose (≧8.85-<13.5 mg),2
same,"Pain in extremity, % of subjects",Middle ⅓ dose (≧8.85-<13.5 mg),(9.1) %
same,"Pain in extremity, n of subjects",Middle ⅓ dose (≧8.85-<13.5 mg),2
same,"Petechiae, % of subjects",Middle ⅓ dose (≧8.85-<13.5 mg),(4.5) %
same,"Petechiae, n of subjects",Middle ⅓ dose (≧8.85-<13.5 mg),1
same,"Platelet count increased, % of subjects",Middle ⅓ dose (≧8.85-<13.5 mg),(9.1) %
same,"Platelet count increased, n of subjects",Middle ⅓ dose (≧8.85-<13.5 mg),2
same,"Serious TEAE Cerebrovascular accident, n (%) of subjects",Middle ⅓ dose (≧8.85-<13.5 mg),0 n (%)
same,"Serious TEAE Chest pain, n (%) of subjects",Middle ⅓ dose (≧8.85-<13.5 mg),0 n (%)
same,"Serious TEAE Diarrhoea, n (%) of subjects",Middle ⅓ dose (≧8.85-<13.5 mg),0 n (%)
same,"Serious TEAE Haemorrhage intracranial, n (%) of subjects",Middle ⅓ dose (≧8.85-<13.5 mg),1 (4.5) n (%)
same,"Serious TEAE Lethargy, n (%) of subjects",Middle ⅓ dose (≧8.85-<13.5 mg),1 (4.5) n (%)
same,"Serious TEAE Mitral valve incompetence, n (%) of subjects",Middle ⅓ dose (≧8.85-<13.5 mg),0 n (%)
same,"Serious TEAE Myocardial infarction, n (%) of subjects",Middle ⅓ dose (≧8.85-<13.5 mg),1 (4.5) n (%)
same,"Serious TEAE Nausea, n (%) of subjects",Middle ⅓ dose (≧8.85-<13.5 mg),1 (4.5) n (%)
same,"Serious TEAE Pelvic venous thrombosis, n (%) of subjects",Middle ⅓ dose (≧8.85-<13.5 mg),1 (4.5) n (%)
same,"Serious TEAE Platelet count decreased, n (%) of subjects",Middle ⅓ dose (≧8.85-<13.5 mg),1 (4.5) n (%)
same,"Serious TEAE Pneumonia, n (%) of subjects",Middle ⅓ dose (≧8.85-<13.5 mg),1 (4.5) n (%)
same,"Serious TEAE Pyrexia, n (%) of subjects",Middle ⅓ dose (≧8.85-<13.5 mg),0 n (%)
same,"Serious TEAE Thrombocytopenia, n (%) of subjects",Middle ⅓ dose (≧8.85-<13.5 mg),0 n (%)
same,"Serious TEAE Transient ischaemic attack, n (%) of subjects",Middle ⅓ dose (≧8.85-<13.5 mg),1 (4.5) n (%)
same,"Serious TEAE Vomiting, n (%) of subjects",Middle ⅓ dose (≧8.85-<13.5 mg),1 (4.5) n (%)
same,"Serious TEAE, % of subjects",Middle ⅓ dose (≧8.85-<13.5 mg),(13.6) %
same,"Serious TEAE, SOC Blood and lymphatic system disorders, n (%) of subjects",Middle ⅓ dose (≧8.85-<13.5 mg),0 n (%)
same,"Serious TEAE, SOC Cardiac disorders, n (%) of subjects",Middle ⅓ dose (≧8.85-<13.5 mg),1 (4.5) n (%)
same,"Serious TEAE, SOC Gastrointestinal disorders, n (%) of subjects",Middle ⅓ dose (≧8.85-<13.5 mg),1 (4.5) n (%)
same,"Serious TEAE, SOC General disorders and administration site conditions, n (%) of subjects",Middle ⅓ dose (≧8.85-<13.5 mg),0 n (%)
same,"Serious TEAE, SOC Infections and infestations, n (%) of subjects",Middle ⅓ dose (≧8.85-<13.5 mg),1 (4.5) n (%)
same,"Serious TEAE, SOC Investigations, n (%) of subjects",Middle ⅓ dose (≧8.85-<13.5 mg),1 (4.5) n (%)
same,"Serious TEAE, SOC Nervous system disorders, n (%) of subjects",Middle ⅓ dose (≧8.85-<13.5 mg),2 (9.1) n (%)
same,"Serious TEAE, SOC Vascular disorders, n (%) of subjects",Middle ⅓ dose (≧8.85-<13.5 mg),1 (4.5) n (%)
same,"Serious TEAE, n of subjects",Middle ⅓ dose (≧8.85-<13.5 mg),3
same,"Serious treatment-related TEAEs, % of subjects",Middle ⅓ dose (≧8.85-<13.5 mg),(4.5) %
same,"Serious treatment-related TEAEs, n of subjects",Middle ⅓ dose (≧8.85-<13.5 mg),1
same,"Severe (grade 3-4) TEAEs, % of subjects",Middle ⅓ dose (≧8.85-<13.5 mg),(22.7) %
same,"Severe (grade 3-4) TEAEs, n of subjects",Middle ⅓ dose (≧8.85-<13.5 mg),5
same,"Somnolence, n of subjects",Middle ⅓ dose (≧8.85-<13.5 mg),0
same,"Suspected drug-related AEs, % of subjects",Middle ⅓ dose (≧8.85-<13.5 mg),(68.2) %
same,"Suspected drug-related AEs, n of subjects",Middle ⅓ dose (≧8.85-<13.5 mg),15
same,"Upper respiratory tract infection, % of subjects",Middle ⅓ dose (≧8.85-<13.5 mg),(4.5) %
same,"Upper respiratory tract infection, n of subjects",Middle ⅓ dose (≧8.85-<13.5 mg),1
